Laboratory results from patent US20100197712A1, “USE OF DOPAMINE STABILIZERS” (priority 2007, published 2010).
Structures can show the parent of a compound that is named as a salt.

Assays:
active rats = test: Video tracking: motor activity (velocity) of active rats; type: in vivo, Sprague-Dawley rats
Method: (§1) Prior to testing, the rats were housed for approximately 1 week with free access to food and water, in groups of four or five in Macrolon type III cages in the animal facility of the Sahlgrenska Academy at Göteborg University. The experiments were approved by the animal ethics committee in Göteborg.
(§2) OSU6162, ACR16, apomorphine and (−)-3-PPP were dissolved in 0.9% saline. A few grains of ascorbic acid were added to apomorphine solutions to prevent oxidation of the drug. Haloperidol and amisulpride were dissolved in a minimum amount of acetic acid and diluted with 5.5% glucose. The solutions were adjusted to pH 5-7 with sodium bicarbonate. Aripiprazole was dissolved in a minimum amount of heated acetic acid, diluted in warm 5.5% glucose and adjusted to pH 4-5. All drugs were administered intraperitoneally (i.p.) or subcutaneously (s.c.) in volumes of 5 ml/kg. Control treatments consisted of the appropriate vehicle administered in accordance with the drug treatment at issue.
(§3) The rats were housed in reverse daylight cycle and all handling of the animals was performed in dim light. Apomorphine was administered s.c. 5 minutes prior to testing, while all other drugs were injected i.p. or s.c. 30 minutes before testing. Single rats were introduced into rectangular arenas (l/w/h: 150×100×40 cm) illuminated indirectly by one infrared lamp (Neocom, South Korea). The rats' movements were recorded to digital (MPEG2) video files using an IR sensitive video camera (Panasonic WV-CPR480, lens: Panasonic LA-408C3) connected to a PC equipped with a MPEG-encoder (MVR1000^SX, Canopus Co.). […] Behavioural variables were extracted from the tracks in MatLab (The MathWorks, Inc., USA) with functions developed in this laboratory. Mean velocity was used to measure motor activity. Prior to calculation of velocity the tracks were subjected to a running mean filter, i.e. each sample was replaced by the mean of fifteen consecutive samples.
(§4) In several cases data from two or more experiments have been pooled. […] Confirmed outlying values (N=0-3 per experiment) were excluded from statistical analyses and graphical presentations. Data from the video tracking setting was analyzed with univariate general linear model (GLM). Following GLM analysis, comparisons versus the appropriate control groups were performed with Dunnet's post hoc test. […] Data obtained from activity boxes was analyzed with Kruskal-Wallis one-way analysis of variance by ranks. […] All statistical tests were two sided and p<0.05 was considered statistically significant.

habituated rats = test: Motor activity of habituated rats in activity boxes; type: in vivo, Sprague-Dawley rats; conditions: s.c.
Method: as §1, §2
Rats were housed in a normal daylight cycle and testing was performed during daytime. Animals were introduced into sound attenuated, illuminated activity boxes (1/w/h: 40×40×20 cm) and were allowed to habituate in the new environment for 65 minutes. During the following 5 minutes test drugs were injected s.c., after which the rats were returned to the boxes for another 60 minutes. Five by five rows of photocell beams at floor level allowed a computer based-system to register horizontal activity. Motor activity is presented as accumulated number of unrepeated beam breaks, i.e. several consecutive breakings of one beam is counted as one beam break. The software was set to register behaviour from the rat's first introduction into the arena until it was finally removed from the box, i.e. for 130 minutes. Activity is presented separately for t=0-30 min and t=30-60 min after injection.
as §4

rats [1] = test: Preliminary experiment: rats in large illuminated arenas during daytime; type: in vivo
Text: As to the issues of illumination and daylight cycle, behavioural inhibition has been observed in ultraviolet (Rung et al., 2005b) or infrared light (current study) during the dark hours of the rats' diurnal rhythm. Based on how the light is perceived by humans, we presume that the ultraviolet and infrared light used in these studies is perceived by the rats as dim light and darkness respectively.

[2] = system: amphetamine-induced hyperactivity in rats; conditions: Natesan et al., 2006; cited from earlier work
human D2l receptors = biological target: T1, human D2l receptors (Homo sapiens, UniProt P14416); test: Incorporation of GTPgammaS^35 in CHO-hD2l membranes; type: biochemical
T1 construct: expressed in transfected cells; host or cells: CHO (CHO-hD2l cells), membrane preparation
T1 sequence (P14416 whole entry): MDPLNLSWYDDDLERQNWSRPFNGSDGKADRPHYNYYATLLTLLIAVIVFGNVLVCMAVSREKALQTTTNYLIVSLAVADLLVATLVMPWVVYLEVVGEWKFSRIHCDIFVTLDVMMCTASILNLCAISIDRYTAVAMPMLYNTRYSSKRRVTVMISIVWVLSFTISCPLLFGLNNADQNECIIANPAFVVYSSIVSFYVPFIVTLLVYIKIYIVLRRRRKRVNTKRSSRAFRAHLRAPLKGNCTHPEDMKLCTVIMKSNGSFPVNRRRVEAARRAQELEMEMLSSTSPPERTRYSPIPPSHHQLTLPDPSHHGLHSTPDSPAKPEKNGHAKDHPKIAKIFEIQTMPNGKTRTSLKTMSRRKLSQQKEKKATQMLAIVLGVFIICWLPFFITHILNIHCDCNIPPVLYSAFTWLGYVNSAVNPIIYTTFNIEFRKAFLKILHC
Method: Membranes were stored at −80° C. at a concentration of 1 mg protein/ml buffer.
Dopamine-stimulated GTPgammaS^35 incorporation was determined using the following procedure: in a buffer containing 20 mM HEPES, 5 mM Mg Cl2, 100 mM NaCl, at pH 7.5, membranes ([…]) were incubated with vehicle, drugs and 3 μM GDP for 30 min at 30° C., total volume was 1.1 ml. […] The reaction was stopped by filtering the samples with a Brandel harvester on Whatmann GF/B filters. Filters were placed in liquid scintillation vials containing 10 ml of BCS scintillation fluid and counted the next day. All samples were run in triplicate.

[3] = clinical dosages of at least 25 mg per day; cited from earlier work
[4] = system: apomorphine induced hypomotility in rats; test: Apomorphine induced hypomotility in rats (video tracking); type: in vivo, Sprague-Dawley rats
Method: FIG. 7. […] Test drugs were administered 30 minutes prior to registration. Motor activity was measured for 30 minutes as velocity in the video tracking setting. Statistical comparisons were made versus the apomorphine group with univariate general linear model, followed by Dunnet's post hoc test. *p<0.05; *p<0.01; ***p<0.001. FIG. 8.
as §3, §4

dopamine D2 receptors = dopamine D2 receptors (Homo sapiens, UniProt P14416); conditions: in-vitro binding, Sonesson et al. 1994; cited from earlier work
Chain of dopamine D2 receptors (P14416 whole entry): as above

[5] = system: mice pretreated with reserpine and alpha-methylpara-tyrosine; test: Mouse model of Parkinsonism (reserpine and alpha-methyl-para-tyrosine pretreated mice); type: in vivo, NMRI mice
Method: Animals were pretreated with reserpine (10 mg/kg i.p.) and alpha-methylpara-tyrosine (500 mg/kg i.p.) 18 and 4 hours before the experiment, respectively, and were then treated with various i.p. doses of OSU6162, expressed in […], or saline (“ctr”). Immediately following injection the animals were placed in individual cages and video-taped from above for 60 min. Shown are the distances moved, means and S.E.M. N=5-6 per treatment group. Statistics: *P<0.05, **p<0.01, as compared with the controls.
In these experiments we used male NMRI mice weighting 25-30 g at the time of testing. The mice were pretreated with reserpine, 10 mg/kg i.p., 18 hours, and alpha-methyl-para-tyrosine HCl, 500 mg/kg i.p. 2 hours, respectively, before the experiment.
The actual experiment was started by injecting either OSU6162 in doses of 5, 25 or 125 μmol/kg i.p.or placebo (a physiological saline solution). Each dosage group consisted of 5-6 mice. Immediately after injection the mice were placed in individual cages and video taped from above for 60 min. Various aspects of motility were analysed from the video tapes.
Statistical calculations were performed with the non parametric Mann-Whitney U-test, and asterisks in the graph indicate significant differences compared to control group (*p<0.05; **p<0.01).

rats [6] = conditions: small activity boxes; pre-treatment 30 minutes; dark hours, light turned off; preliminary
[7] = Hartter et al., 2003; cited from earlier work
[8] = whole 60 min registration / either time interval
[9] = i.p., 30 min prior to 30 min tracking
[10] = apomorphine 0.16 μmol/kg s.c., test drug i.p. 30 min prior, dose range per drug

SMILES: CN1CCc2cccc3c2[C@H]1Cc1ccc(O)c(O)c1-3 [apomorphine, R-(−)-Apomorphine hydrochloride hemihydrate]
- locomotor activity (velocity) (active rats; apomorphine 0.04-0.16 μmol/kg s.c., 5 min prior to registration): dose dependent inhibiting effect on locomotor activity
- motor activity (velocity) (active rats; apomorphine higher dose-interval 0.16-64 μmol/kg s.c.): motor activity began to return towards a level similar to that observed in controls
- dose of maximal inhibition of motor activity (active rats; apomorphine s.c.): 0.16 µmol/kg

SMILES: CCCN1CCC[C@@H](c2cccc(O)c2)C1 [(−)-3-PPP, S-(−)-3-[3-hydroxyphenyl]-1-propylpiperidine, reference compound]
- motor activity (accumulated unrepeated beam breaks) (habituated rats; [8]): did not have any statistically significant effects on motor activity in either time interval
- motor activity (velocity) (active rats; s.c., 30 min prior to 30 min tracking, OSU6162 50-200 μmol, (−)-3-PPP 2.5 and 10 μmol/kg): marked and dose-dependent inhibition on motor activity, that was statistically significant at all doses tested

SMILES: O=C1CCc2ccc(OCCCCN3CCN(c4cccc(Cl)c4Cl)CC3)cc2N1 [aripiprazole, reference compound]
- motor activity (accumulated unrepeated beam breaks) (habituated rats; t=0-30 min after injection): dose-dependent inhibition during the first 30 minutes after injection, which was statistically significant at the highest dose
- motor activity (accumulated unrepeated beam breaks) (habituated rats; t=30-60 min after injection): did not affect locomotor activity
- motor activity (velocity) (active rats; [9]): marked and dose-dependent inhibition on motor activity, that was statistically significant at all doses tested

SMILES: CCCN1CCC[C@@H](c2cccc(S(C)(=O)=O)c2)C1 [(−)-OSU6162, S-(−)-3-[3-methylsulfonylphenyl]-1-propylpiperidine]
- behavioural response (rats [1]; daytime, large illuminated arenas, not habituated): behavioural inhibition similar to that observed in darkness
- behavioural response (rats [1]; rats habituated to large illuminated arenas): did not respond with any change in activity
- effect on amphetamine-induced hyperactivity [2]: reverse amphetamine-induced hyperactivity
- increase of the incorporation of GTPgammaS^35 (human D2l receptors; absence of dopamine, 100 to 10,000 nM (−)OSU6162): 8 to 11%
- effect on GTPgammaS^35 incorporation (human D2l receptors; dopamine 10 to 100 nM, (−)-OSU6162 10 to 100 nM): caused an increased incorporation of GTPgammaS^35
- effect on GTPgammaS^35 incorporation (human D2l receptors; dopamine 10 to 100 nM, (−)-OSU6162 1,000 to 10,000 nM): this increase was no longer seen
- effect on GTPgammaS^35 incorporation (human D2l receptors; dopamine 1,000 and 10,000 nM, varied (−)-OSU6162 levels): similar, though flatter activity curves
- dose at which a significant effect on motor activity shows up (habituated rats; later experiment with lower doses 6.25 and 12.5 μmol/kg): 12.5 µmol/kg
- motor activity (accumulated unrepeated beam breaks) (habituated rats; t=0-30 min after injection): marked locomotor activation
- motor activity (accumulated unrepeated beam breaks) (habituated rats; t=30-60 min after injection): the three highest doses significantly stimulated locomotion
- cardiac adverse effects [3]: QTc values higher than normal, cardiac arrhythmia, or heart rhythm abnormalities, such as torsades de pointes
- motor activity (velocity) (active rats; [9]): dose-dependent and statistically significant reduction of motor activity
- effect on apomorphine-induced hypomotility ([4]; apomorphine 0.16 μmol/kg s.c., OSU6162 120 μmol/kg i.p.): seemed to cause a marked drop in motor activity
- effect on apomorphine-induced hypomotility [4, 10]: modest but apparently dose dependent reversal of apomorphineinduced hypomotility up to a dose of 60 μmol/kg
- Ki (dopamine D2 receptors): in the micromolar region
- motility (distance moved, 60 min) ([5]; OSU6162 5 μmol/kg i.p.): showed only minimal signs of motility
- motility (distance moved, 60 min) ([5]; OSU6162 two higher doses (25, 125 μmol/kg i.p.)): significant, dose dependent increase in motility

SMILES: O=C(CCCN1CCC(O)(c2ccc(Cl)cc2)CC1)c1ccc(F)cc1 [haloperidol, reference compound]
- motor activity (accumulated unrepeated beam breaks) (habituated rats; [8]): Neither haloperidol (0.1-0.8 μmol/kg) nor amisulpride (33-300 μmol/kg) had any significant effects on motor activity
- motor activity relative to control (active rats; haloperidol 0.8 μmol/kg, s.c.): approximately 7 % of control level
- motor activity (velocity) (active rats; [9]): statistically significant inhibition at the highest dose
- effect on apomorphine-induced hypomotility [4, 10]: no statistically significant effects on motor activity

SMILES: CCCN1CCC(c2cccc(S(C)(=O)=O)c2)CC1 [ACR16, 4-(3-methanesulfonylphenyl)-1-propyl-piperidine]
- effect on amphetamine-induced hyperactivity [2]: reverse amphetamine-induced hyperactivity
- motor activity (accumulated unrepeated beam breaks) (habituated rats; t=0-30 min after injection): this effect increased dose-dependently
- motor activity (accumulated unrepeated beam breaks) (habituated rats; t=30-60 min after injection): the effect appeared to peak at the dose 50 μmol/kg
- motor activity (accumulated unrepeated beam breaks) (habituated rats; [8]): caused an activation, although smaller than that of OSU6162
- motor activity (rats [6]): marked reduction in motor activity
- motor activity (velocity) (active rats; [9]): dose-dependent and statistically significant reduction of motor activity
- effect on apomorphine-induced hypomotility ([4]; apomorphine 0.08 μmol/kg s.c., ACR16 i.p., higher dose): tended to inhibit activity further
- effect on apomorphine-induced hypomotility [4, 10]: did not have any noticeable effect on apomorphine-induced hypoactivity

SMILES: CCN1CCCC1CNC(=O)c1cc(S(=O)(=O)CC)c(N)cc1OC (stereo not drawn) [amisulpride, reference compound]
- motor activity (accumulated unrepeated beam breaks) (habituated rats; [8]): Neither haloperidol (0.1-0.8 μmol/kg) nor amisulpride (33-300 μmol/kg) had any significant effects on motor activity
- penetration of biological membranes [7]: poor penetration of biological membranes
- motor activity (velocity) (active rats; [9]): inhibited motor activity slightly at the highest dose tested
- effect on apomorphine-induced hypomotility ([4]; amisulpride 270 μmol/kg, s.c., data not shown): a mere tendency towards reversal of apomorphine-induced hypoactivity
- effect on apomorphine-induced hypomotility [4, 10]: effectively counteracted apomorphine-induced hypoactivity
